From patent US20190135818A1 (SHANGHAI INSTITUTE OF MATERIA MEDICA, CHINESE ACADEMY OF …, priority 2016, published 2019)

Tests used:
FGFR1 = molecular target: T1, FGFR1 (Homo sapiens, UniProt P11362); assay: FGFR kinase inhibitory activity experiment (ELISA, Poly(Glu,Tyr)4:1 substrate); type: biochemical; conditions: kinase recombinant protein FGFR1, ATP 5 μM
T1 construct: The reaction was initiated by addition of FGFR kinase domain recombinant protein diluted with 49 μL of reaction buffer; purchased Millipore 14-482
T1 sequence (P11362 478-767 limits assumed): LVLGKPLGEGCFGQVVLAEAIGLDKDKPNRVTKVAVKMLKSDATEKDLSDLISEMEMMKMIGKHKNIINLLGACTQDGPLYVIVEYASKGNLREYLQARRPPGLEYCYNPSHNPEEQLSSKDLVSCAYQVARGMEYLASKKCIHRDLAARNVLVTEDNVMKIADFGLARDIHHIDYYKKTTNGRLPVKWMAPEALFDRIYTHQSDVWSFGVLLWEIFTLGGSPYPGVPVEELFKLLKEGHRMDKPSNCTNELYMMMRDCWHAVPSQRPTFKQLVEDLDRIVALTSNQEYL
Experimental: Precision electronic balance (Sartotius, Cat. No. BP210D), adjustable wavelength microplate reader (Molecular Device, Cat. No. SpectraMax 190).
After the liquid was removed from the wells, the plate was washed for three times with 200 μL/well of T-PBS (PBS containing 0.1% Tween-20) for 5 minutes each time. The enzyme plate was dried at 37° C. in a dryer for 1-2 hours.
50 μL ATP solution diluted with reaction buffer (50 mM HEPES pH 7.4, 50 mM MgCl2, 0.5 mM MnCl2, 0.2 mM Na3VO4, 1 mM DTT) was added into each well at a 5 μM final concentration. The compounds were diluted to appropriate concentration in DMSO, 1 μL/well or containing the corresponding concentrations of DMSO (negative control wells). The reaction was initiated by addition of FGFR kinase domain recombinant protein diluted with 49 μL of reaction buffer. Two control wells without enzyme were set in each experiment. The plate was placed on a shaker (100 rpm) at 37° C. for 1 hour. The plate was washed with T-PBS for three times. 100 μL/well of primary antibody PY99 dilution was added, and incubated at 37° C. for 0.5 hour on a shaker (100 rpm). The plate was washed with T-PBS for three times. 100 μL/well of horseradish peroxidase-labeled secondary anti-goat anti-mouse IgG dilution was added and incubated at 37° C. for 0.5 hour on a shaker (100 rpm). The plate was washed with T-PBS for three times. 100 μL/well of 2 mg/mL OPD coloration solution (diluted with 0.1 M citric acid-sodium citrate buffer containing 0.03% H2O2 (pH=5.4)) was added, and incubated in darkness for 1-10 minutes at 25° C. The reaction was quenched with 50 μL/well 2M H2SO4, and read at 490 nm using a tunable microplate microplate reader SPECTRA MAX 190.
The inhibition ratio of the sample was determined by the following formula: […]
(§1) The IC50 values were obtained by four-parameter regression analysis using the software supplied with the microplate reader.

[1] = system: Human acute myeloid leukemia cell line KG1; assay: FGFR-dependent tumor cell proliferation inhibition activity test (CCK-8, 72 h); type: cell-based; conditions: Homo sapiens, KG-1, KG1 cells
Excerpt: Human acute myeloid leukemia cell line KG1 (FGFR1 fusion protein expressed in the cytoplasm, FGFR1-dependent tumor cell line) (ATCC, Cat. No. CCL-246), cell culture medium RPMI-1640 (Corning Cellgro, No. 10-040-CVR), fetal bovine serum (Life
Technologies, Cat. No. 10099-141) was purchased from the company; CCK-8 cell counting kit (DOJINDO, Cat. No. FK808). Adjustable wavelength microplate reader (Molecular Device, Cat. No. SpectraMax 190).
The inhibitory effect of the compound on KG1 proliferation was detected by CCK-8 Cell Counting Kit (Dojindo): Logarithmic growth phase cells were seeded in 96-well culture plate in appropriate density, 90 ul for each well. After cultured overnight, different concentrations of drugs were added and incubated for 72 h, while solvent control well was set (negative control). After the cells were treated by the compound for 72 h, 10 μL of CCK-8 reagent was added to each well. After incubated for 2-4 hours in a 37 □ incubator, the plate was read with SpectraMax 190 microplate reader at wavelength 450 nm.
The inhibition rate of compounds against cell proliferation is calculated by the following formula:
Inhibition rate (%)=(OD negative control well-OD administration well)/OD negative control well×100%.
as §1

| IC50 (FGFR1) [nM] | IC50 [1] [nM] | Compound |
| --- | --- | --- |
| < 100 | ≤ 100 | C=CC(=O)N1CCCC(n2nc3c(=O)[nH]nc(N)c3c2-c2oc3ccc(C)cc3c2C)C1 (stereo not drawn) [Compound A40, 2-(1-acryloylpiperidin-3-yl)-4-amino-3-(3,5-dimethyl-1-benzofuran-2-yl)-2,6-dihy-dro-7H-pyrazolo[3,4-d]pyridazin-7-one] |
| < 100 | ≤ 100 | C=C(C#N)C(=O)N1CCC(n2nc3c(=O)[nH]nc(N)c3c2-c2oc3ccc(C)cc3c2C)CC1 [Compound A55, 2-({4-[4-amino-3-(3,5-dimethyl-1-benzo-furan-2-yl)-7-carbonyl-6,7-dihydro-2H-pyrazolo[3,4-d]pyridazin-2-yl]piperidin-1-yl}carbonyl)prop-2-enenitrile] |
| < 100 | ≤ 100 | C=CC(=O)N1CCC(n2nc3c(=O)[nH]nc(N)c3c2-c2oc3cc(C)ccc3c2C)CC1 [Compound A82, 2-(1-acryloylpiperidin-4-yl)-4-amino-3-(3,6-dimethylbenzofuran-2-yl)-2,6-dihy-dro-7H-pyrazole[3,4-d]pyridazin-7-one] |
| < 100 | ≤ 100 | C=CC(=O)NC1CCC(n2nc3c(=O)[nH]nc(N)c3c2-c2oc3ccc(C)cc3c2C)CC1 (stereo not drawn) [Compound A33, N-{4-[4-amino-3-(3,5-dimethyl-1-benzo-furan-2-yl)-7-carbonyl-6,7-dihydro-2H-pyrazolo[3,4-d]pyridazin-2-yl]cyclohexyl}prop-2-enamide] |

The remaining lines, values behind:

| Compound | IC50 (FGFR1) [nM] | IC50 [1] [nM] |
| --- | --- | --- |
| Cc1c(-c2c3c(N)n[nH]c(=O)c3nn2-c2ccccc2)oc2ccc(Cl)cc12 [Compound A7, 4-amino-3-(5-chloro-3-methyl-1-benzo-furan-2-yl)-2-phenyl-2,6-dihydro-7H-pyrazolo[3,4-d]pyridazin-7-one] | < 100 | 100 to 1000 |
| CCC(=O)N1CCC(n2nc3c(=O)[nH]nc(N)c3c2-c2oc3ccc(Cl)cc3c2C)CC1 [Compound A41] | < 100 | 100 to 1000 |
| C=CC(=O)N1CCC(n2nc3c(=O)[nH]nc(N)c3c2-c2oc3cc(Cl)ccc3c2C)CC1 [Compound A84, 2-(1-acryloylpiperidin-4-yl)-4-amino-3-(6-chloro-3-methylbenzofuran-2-yl)-2,6-dihydro-7H-pyrazolo[3,4-d]pyridazine-7-one] | < 100 | ≤ 100 |
| Cc1ccc2oc(-c3c4c(N)n[nH]c(=O)c4nn3-c3ccc(NC(=O)/C=C/CN4CCC4)cc3)c(C)c2c1 [Compound A27, (2E)-N-{4-[4-amino-3-(3,5-dimethyl-1-benzofuran-2-yl)-7-carbonyl-6,7-dihydro-2H-pyrazolo[3,4-d]pyridazin-2-yl]phenyl}-4-(azetidin-1-yl)but-2-enamide] | < 100 | ≤ 100 |
| CCN1CCC(n2nc3c(=O)[nH]nc(N)c3c2-c2oc3ccc(Cl)cc3c2C)CC1 [Compound A23, 4-amino-3-(5-chloro-3-methyl-1-benzo-furan-2-yl)-2-(1-ethylpiperidin-4-yl)-2,6-dihydro-7H-pyrazolo[3,4-d]pyridazin-7-one] | < 100 | ≤ 100 |
| Cc1ccc2oc(-c3c4c(N)n[nH]c(=O)c4nn3-c3ccc(Cl)cc3)c(C)c2c1 [Compound A13, 4-amino-2-(4-chlorophenyl)-3-(3,5-dimethyl-1-benzofuran-2-yl)-2,6-dihydro-7H-pyrazolo[3,4-d]pyridazin-7-one] | < 100 | 100 to 1000 |
| C=CC(=O)N1CCCC(n2nc3c(=O)[nH]nc(N)c3c2-c2oc3ccc(OC)cc3c2C)C1 (stereo not drawn) [Compound A79, 2-(1-acryloylpiperidin-3-yl)-4-amino-3-(5-methoxy-3-methylbenzofuran-2-yl)-2,6-dihydro-7H-pyrazolo[3,4-d] pyridazin-7-one] | < 100 | ≤ 100 |
| C=CC(=O)N1CCC(n2nc3c(=O)[nH]nc(N)c3c2-c2oc3ccc(Cl)cc3c2C)CC1 [Compound A86, 2-(1-acryloylpiperidin-4-yl)-4-amino-3-(5-chloro-3-methylbenzofuran-2-yl)-2,6-dihydro-7H-pyrazolo[3,4-d]pyridazin-7-one] | < 100 | ≤ 100 |
